Data published in patent US5227385A, “Method for treatment of neurodegenerative diseases” (priority 1992, dated 1993).

Assays:
[1] = tested on: synaptosomes from the striatal area of rat brain (dopamine release); assay: [3H]-dopamine release from striatal synaptosomes of rat brain; assay type: cell-based, rat (Sprague-Dawley); conditions: evaluated as described in Example 1
Procedure: Dopamine release was measured by preparing synaptosomes from the striatal area of rat brain generally obtained from Sprague-Dawley rats according to the procedures set forth by Nagy, et al., J. Neurochem., Vol. 43, pp. 1114-1123 (1984). Striata from 4 rats were homogenized in 2 ml of 0.32M sucrose buffered with 5 mM HEPES (pH 7.5), using a glass-teflon tissue grinder. The homogenate was diluted to 5 ml with additional homogenization solution and centrifuged at 1000×g for 10 min. This procedure was repeated on the new pellet and the resulting supernatant was centrifuged at 12,000×g for 20 min. […] Using this method, 30 to 90 percent of the dopamine was taken up into the synaptosomes, as determined by scintillation counting following filtration through glass fiber filters soaked with 0.5 percent polyethyleneimine. […] After the addition of a 0.2 ml of a 20 μM solution of ligand, the perfusate was collected into scintillation vials at 1 min. intervals and the dopamine released was quantified by scintillation counting. Peaks of radioactivity released above background were summed and the average basal release during that time was subtracted from the total. Release was expressed as a percentage of release obtained with an equal concentration of (S)-(-)-nicotine.

[2] = target: nicotinic cholinergic receptors; assay: Inhibition of L-[3H]nicotine binding to mouse brain membranes; design: species or system mouse (DBA strain); conditions: racemic mixture of ligand, 10 nM L-[3H]nicotine, 2 hr, 4° C.
Procedure: Mice (DBA strain) were maintained on a 12 hour light/dark cycle and were allowed free access to water and food supplied by Wayne Lab Blox, Madison, Wis. Animals used in the present studies were 60 to 90 days of age and weighed 20 to 25 g. Brain membrane preparations were obtained from pooled brain tissue of both males and females.
Mice were killed by cervical dislocation. Brains were removed and placed on an ice-cold platform. […] Protein was determined by the method of Lowry, et al., J. Biol. Chem., Vol. 193, pp. 265-275 (1951), using bovine serum albumin as the standard.
The binding of L-[^3 H]nicotine was measured using a modification of the method of Romano, et al., Science, Vol. 210, pp. 647-650 (1980) as described previously by Marks, et al., Mol. Pharmacol., Vol. 30, pp. 427-436 (1986). The binding of L-[^3 H]nicotine was measured using a 2 hr. incubation at 4° C. […] Nonspecific binding was determined by inclusion of 10 μM nonradioactive nicotine in the incubations. The inhibition of L-[^3 H]nicotine binding by test compounds was determined by including one of eight different concentrations of the test compound in the incubation. […] Inhibition constants (Ki values) were calculated from the IC50 values using the method of Cheng, et al., Biochem. Pharmacol., Vol. 22, pp. 3099-3108 (1973). […]

[3] = in vivo; cited from earlier work
[4] = tested on: nicotinic cholinergic receptors; conditions: chronic administration to animals; cited from earlier work
[5] = tested on: nicotinic cholinergic receptors; conditions: acute administration; cited from earlier work
[6] = tested on: acetylcholine release in brain tissue; conditions: direct action; cited from earlier work

CC(=O)C1=C(C)CC2CCC1N2 (stereo not drawn) [Example 2, 2-acetyl-3-methyl-8-azabicyclo[3.2.1]oct-2-ene]
dopamine release (in words) [1]: found to provide dopamine release

CC(=O)C1=C(C)CC2CCC1N2C (stereo not drawn) [Example 3, 2-acetyl-3,8-dimethyl-8-azabicyclo[3.2.1]oct-2-ene]
dopamine release (in words) [1]: found to provide dopamine release

CC(=O)C1=CCC2CCC1N2C (stereo not drawn) [Ferruginine, ferruginine]
Ki [2]: 3100 ± 500 nM

CC(=O)C1=CCC2CCC1N2 (stereo not drawn) [Norferruginine, norferruginine]
Ki [2]: 1100 ± 300 nM

CN1CCCC1c1cccnc1 (stereo not drawn) [nicotine]
attention [3]: enhance attention | cognitive functions [3]: improve cognitive functions | number of nicotinic cholinergic receptors [4]: elicit an increase in the number of such receptors | activation of nicotinic cholinergic receptors [5]: suggested to possess an ability to activate nicotinic cholinergic receptors | release of acetylcholine in brain tissue [6]: elicit the release of acetylcholine in brain tissue
